Consider 25 molecules from US20170022201A1, “MACROCYLIC PYRIDINE DERIVATIVES” (Janssen Pharmaceutica NV, priority 2014, published 2017).

In one assay the target is PIK3C3 lipid kinase (Homo sapiens, UniProt Q8NEB9). Put plainly: Biochemical Vps34 lipid kinase assay (ADP-Glo). As to conditions: 20 μM ATP; for remaining activity at 1 µM: 1 h, single dose 1 μM, residual activity compared to control (DMSO), read-out: VPS34_1microM_%ofcntrl; for IC50: serial dilution 10 μM to 0.3 nM, pIC50 = -log IC50 (M). The procedure: A non-radiometric kinase assay (ADP-Glo™ Assay, Promega, Madison, Wi, USA) was used for measuring the kinase activity of the PIK3C3 lipid kinase. All kinase assays were performed in 96-well half-area microtiter plates in a 25 μl reaction volume. The reaction cocktail was pipetted in 3 steps in the following order: • 10 μl of ATP solution (in assay buffer, see below) • 5 μl of test sample in 5% DMSO 10 μl of enzyme/substrate mixture
All lipid kinase assays contained 50 mM HEPES (4-(2-hydroxyethyl)-1-piperazineethanesulfonic acid)—NaOH, pH 7.5, 1 mM EGTA ((ethylene glycol tetraacetic acid), 100 mM NaCl, 0.03% CHAPS (3-[(3-Cholamidopropyl) dimethylammonio]-1-propanesulfonate), 2 mM DTT (Dithiothreitol), 20 μM ATP (corresponding to the apparent ATP-Km), kinase (7.6 nM) and substrate (50 μM). The assay for PIK3C3 additionally contained 3 mM MnCl2.
The reaction cocktails were incubated at 30° C. for 60 minutes. The reaction was stopped with 25 μl ADP-Glo™ reagent per well. Plates were incubated for 40 minutes at room temperature, followed by addition of 50 μl kinase detection reagent per well and incubation for 60 minutes at room temperature. Signal was determined with a microplate luminescence reader (Victor, Perkin Elmer). The assay was either performed using a single dose of compound (1 μM final concentration in the assay reaction) with resulting data expressed as residual activity compared to control (DMSO), or using a serial (half-log) dilution of compounds starting at 10 μM and down to 0.3 nM (final concentrations in the assay) with data expressed as the pIC50.

In another assay the target is T1, eEF2K (Homo sapiens, UniProt O00418).
T1 construct: in the immortalized epithelial breast cell lines, MCF10A; host or cells: MCF10A immortalized breast epithelial cells
T1 sequence (O00418 1-725): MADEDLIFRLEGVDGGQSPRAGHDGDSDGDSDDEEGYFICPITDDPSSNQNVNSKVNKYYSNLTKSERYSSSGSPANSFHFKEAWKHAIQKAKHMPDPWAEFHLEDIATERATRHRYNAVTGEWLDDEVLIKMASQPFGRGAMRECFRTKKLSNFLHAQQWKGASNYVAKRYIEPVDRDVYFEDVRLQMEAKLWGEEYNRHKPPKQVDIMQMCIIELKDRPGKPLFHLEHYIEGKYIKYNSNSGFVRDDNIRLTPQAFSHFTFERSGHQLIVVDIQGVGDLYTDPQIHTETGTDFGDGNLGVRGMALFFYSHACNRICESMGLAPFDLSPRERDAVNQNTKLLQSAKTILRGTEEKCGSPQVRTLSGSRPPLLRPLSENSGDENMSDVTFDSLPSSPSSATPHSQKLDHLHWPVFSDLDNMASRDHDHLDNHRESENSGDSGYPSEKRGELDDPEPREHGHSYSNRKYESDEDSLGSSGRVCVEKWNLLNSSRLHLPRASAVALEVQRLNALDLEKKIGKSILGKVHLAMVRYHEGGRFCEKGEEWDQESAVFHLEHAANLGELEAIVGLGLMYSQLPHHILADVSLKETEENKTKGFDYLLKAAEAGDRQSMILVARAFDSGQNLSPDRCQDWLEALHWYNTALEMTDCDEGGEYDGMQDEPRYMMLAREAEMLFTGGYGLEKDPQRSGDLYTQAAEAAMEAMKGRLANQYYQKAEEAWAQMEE
The experiment in a line: EF2K cell-based assay (P-EF2 AlphaLISA, 2-deoxyglucose stimulated MCF10A cells). As to conditions: 2.5 mM 2-deoxyglucose 4 h, phosphorylation of EF2 at Thr 56, pIC50 = -log IC50 (M), read-out: eEF2K_C_PThr56 pIC50 (converted). The procedure:
In this assay, 2.5 mM 2-deoxyglucose was used to deplete intracellular ATP and activate 5′ adenosine monophosphate-activated protein kinase (AMPK) in the immortalized epithelial breast cell lines, MCF10A. MCF 10A cells were purchased from ATCC (CRL-10317).
MCF10A cells are seeded at a density of 1.25×10^5 Cells/ml at 100 μl/well in a 96-well plate and incubated for 24 hours (37° C., 5% CO2). Compound is added for 1 hour, and cell are stimulated with 2.5 mM of 2-deoxy-glucose for 4 hours. Medium is then removed, and cells are lysed in an ice-cold buffer M-PER (Thermo Scientific, 78501), containing protease and phosphatase inhibitors. P-EF2 levels are determined in these lysates using the P-EF2 AlphaLISA described above.

A further assay has as its target T2, EF2K (Homo sapiens, UniProt O00418).
T2 construct: host or cells: LN-229 glioblastoma cell lysate
T2 sequence (O00418 1-725): T1 sequence (O00418 1-725)
Put plainly: Biochemical EF2K lysate-based kinase assay (AlphaLISA p-eEF2 Thr56). As to conditions: LN-229 cell lysates, 10 mM ATP, pH 6.6; pIC50 = -log IC50 (M); read-out: eEF2K_C_alphalisa pIC50 (converted). The text has this: LN-229 cells were purchased from ATCC (CRL-2611); these are glioblastoma cells. Cell lysates from LN229 were used in this kinase assay to provide both the kinase and the substrate (EF2). The AlphaLISA p-eEF2 (Thr56) detection assay was developed using a sandwich assay format with two specific antibodies recognizing different epitopes of the target, including one antibody against the phosphorylation site of interest. One anti-eEF2 antibody was conjugated onto AlphaLISA Acceptor beads, while the second antibody was biotinylated and captured by streptavidin coated Donor beads.
Compound was mixed with LN-229 cell lysates in the presence of a kinase buffer (e.g. HEPES) at a pH of 6.6, containing 10 mM Mg^2+ (e.g. magnesium acetate) and 10 mM adenosine-tri-phosphate (ATP) and incubated at room temperature for 15 minutes. The kinase reaction was stopped with excess ethylenediaminetetraacetic acid disodium salt and the biotinylated-anti phospho eEF2 antibody (3 nM) was added for 1 hour. Then the anti-EF2 acceptor beads (10 μg/ml) as well as the streptavidin coated donor beads (20 μg/ml) were added for 1 hour, and the AlphaLISA signal was measured in an Envision instrument once, left overnight, and measured again for the final read.

Chain of PIK3C3 lipid kinase (Q8NEB9 whole entry): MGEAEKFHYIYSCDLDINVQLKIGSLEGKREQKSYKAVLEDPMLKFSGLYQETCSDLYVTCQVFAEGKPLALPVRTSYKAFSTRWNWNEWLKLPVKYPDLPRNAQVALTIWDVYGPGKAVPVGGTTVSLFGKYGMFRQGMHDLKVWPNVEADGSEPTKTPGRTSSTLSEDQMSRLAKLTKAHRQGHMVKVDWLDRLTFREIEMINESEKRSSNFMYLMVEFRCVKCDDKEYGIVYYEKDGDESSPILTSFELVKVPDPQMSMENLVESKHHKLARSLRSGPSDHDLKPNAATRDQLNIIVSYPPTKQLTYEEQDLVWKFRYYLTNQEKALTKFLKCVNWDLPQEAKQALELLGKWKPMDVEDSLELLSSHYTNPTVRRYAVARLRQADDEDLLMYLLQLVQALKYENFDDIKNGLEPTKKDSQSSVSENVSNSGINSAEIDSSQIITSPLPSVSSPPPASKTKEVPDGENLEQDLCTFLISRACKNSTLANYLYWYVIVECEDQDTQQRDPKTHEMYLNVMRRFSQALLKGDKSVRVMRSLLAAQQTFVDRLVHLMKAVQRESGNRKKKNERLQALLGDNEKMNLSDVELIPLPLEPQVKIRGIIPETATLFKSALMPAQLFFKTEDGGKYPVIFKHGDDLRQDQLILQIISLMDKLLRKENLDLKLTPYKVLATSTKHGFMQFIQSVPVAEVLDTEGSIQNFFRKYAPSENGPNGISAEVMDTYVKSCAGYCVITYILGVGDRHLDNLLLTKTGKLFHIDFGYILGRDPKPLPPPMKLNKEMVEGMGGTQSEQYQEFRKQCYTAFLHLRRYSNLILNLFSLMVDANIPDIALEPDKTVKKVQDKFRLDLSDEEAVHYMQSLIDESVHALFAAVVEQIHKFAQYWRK

In the case of `CN1CCCN(CCCO)c2ncc(cn2)-c2ccnc(c2)Nc2cccc(c2)CN2CCN(CC2)CC1=O` [Compound 16], the remaining activity at 1 µM at PIK3C3 lipid kinase is 46.1%. The IC50 on eEF2K and on EF2K was over 3.02e-05 M throughout.

For the molecule `CN1CCN(CCCO)c2ncc(cn2)-c2ccnc(c2)Nc2cccc(c2)CN2CCN(CC2)CC1=O` [Compound 17], the remaining activity at 1 µM on PIK3C3 lipid kinase was determined as 62.4%. In addition, the IC50 on eEF2K and at EF2K was over 3.02e-05 M in each case.

`CC1(C)CN2CCN1CC(=O)NCCCNc1ncc(cn1)-c1ccnc(c1)Nc1cccc(c1)C2` [Compound 18]: on PIK3C3 lipid kinase, the remaining activity at 1 µM came out at 8.79%. The IC50 on PIK3C3 lipid kinase was 1.74e-07 M; on eEF2K it was 1.05e-06 M; at EF2K, 8.71e-08 M.

Take `CC1(C)CN2CCN1Cc1cccc(c1)Nc1cc(ccn1)-c1cnc(nc1)NCCCNC(=O)C2` [Compound 19]: the IC50 against PIK3C3 lipid kinase was 2.88e-07 M; at eEF2K, 7.08e-07 M; at EF2K it was 3.39e-08 M.

In the case of `O=C1CN2CCN(Cc3cccc(c3)Nc3cc(ccn3)-c3cnc(nc3)NCCCN1)C1(CC1)C2` [Compound 27], the IC50 is 2.57e-08 M on PIK3C3 lipid kinase, about 1.23e-06 M on eEF2K and 1.07e-08 M at EF2K.

Regarding `O=C1CN2CCN(Cc3cccc(c3)Nc3cc(ccn3)-c3cnc(nc3)NCCCN1)CC21CC1` [Compound 28], the IC50 against PIK3C3 lipid kinase is over 1e-05 M; on eEF2K, over 1e-05 M; on EF2K, 2.24e-05 M.

For the molecule `O=C1CN2CCN(CC2)Cc2cccc(c2)Nc2cc(ccn2)-c2cnc(nc2)NCCCN1` [Compound 33], the IC50 against PIK3C3 lipid kinase was 2.19e-07 M; at eEF2K, about 7.94e-07 M; on EF2K, about 2.19e-08 M.

Consider `CC1CN2CC(=O)NCCCNc3ncc(cn3)-c3ccnc(c3)Nc3cccc(c3)CN1C(C)C2` (stereo not drawn) [Compound 34], for which, on PIK3C3 lipid kinase, the remaining activity at 1 µM came to 23.5%. Moreover, the IC50 against PIK3C3 lipid kinase was 3.63e-07 M; at eEF2K it was about 2.63e-06 M; at EF2K it was 3.31e-07 M.

`CC1CN2Cc3cccc(c3)Nc3cc(ccn3)-c3cnc(nc3)NCCCNC(=O)CN1CC2C` (stereo not drawn) [Compound 35]: on PIK3C3 lipid kinase, the remaining activity at 1 µM came to 20.9%. For the same molecule, the IC50 was 2.95e-07 M against PIK3C3 lipid kinase, 2.45e-07 M on eEF2K and 6.46e-08 M on EF2K.

In the case of `CC1CN2CCN1Cc1cccc(c1)Nc1cc(ccn1)-c1cnc(nc1)NCCCNC(=O)C2` (stereo not drawn) [Compound 36], the IC50 against PIK3C3 lipid kinase was 7.24e-07 M; on eEF2K it was 9.77e-07 M; on EF2K it was 1.62e-08 M.

Consider `O=C1CN2CCN(CC2)Cc2cccc(c2)Nc2cc(ccn2)-c2ccc(nn2)NCCCN1` [Compound 37], for which the remaining activity at 1 µM at PIK3C3 lipid kinase came to 84.5%. The IC50 is over 3.02e-05 M at eEF2K and about 2.45e-05 M at EF2K.

In the case of `CN1CCCN(C)c2ncc(cn2)-c2ccnc(c2)Nc2cccc(c2)CN2CCN(CC2)CC1=O` [Compound 38], at PIK3C3 lipid kinase, the remaining activity at 1 µM came to 43.3%. The IC50 on eEF2K is over 3.02e-05 M; on EF2K, 8.51e-08 M.

For the molecule `O=C1CN2CCN(CC2)Cc2cccc(c2)Nc2cc(ccn2)-c2cnc(cn2)NCCCN1` [Compound 39], at PIK3C3 lipid kinase, the remaining activity at 1 µM turned out to be 45.7%. The IC50 on eEF2K is 1.23e-05 M; on EF2K it was 2.75e-07 M.

In the case of `CC1CN2CCN1Cc1cccc(c1)Nc1cc(ccn1)-c1cnc(nc1)NCCCNC(=O)C2` (stereo not drawn) [Compound 40], the remaining activity at 1 µM at PIK3C3 lipid kinase is 11%. For the same molecule, the IC50 at PIK3C3 lipid kinase is 2.63e-07 M; on eEF2K it was about 5.89e-06 M; at EF2K, 1.62e-07 M.

For the molecule `O=C1CN2CC3CCC(C2)N3Cc2cccc(c2)Nc2cc(ccn2)-c2cnc(nc2)NCCCN1` [Compound 41], the remaining activity at 1 µM on PIK3C3 lipid kinase was 23.3%. Further, the IC50 against PIK3C3 lipid kinase was 7.41e-07 M; on eEF2K, 1.7e-06 M; at EF2K, 1.05e-07 M.

Regarding `O=C1CN2C3CCC2CN(Cc2cccc(c2)Nc2cc(ccn2)-c2cnc(nc2)NCCCN1)C3` [Compound 42], the IC50 is 7.08e-07 M on PIK3C3 lipid kinase, about 2.29e-06 M on eEF2K and 9.77e-08 M at EF2K.

`O=C1CN2CCN(Cc3cccc(c3)Nc3cc(ccn3)-c3cnc(nc3)N3CCCC3CCN1)C(CO)C2` (stereo not drawn) [Compound 44]: the values for the IC50 at PIK3C3 lipid kinase, at eEF2K and at EF2K were 1.55e-06 M, 8.71e-06 M and 2.45e-08 M, respectively.

`O=C1CN2CCN(Cc3cccc(c3)Nc3cc(ccn3)-c3cnc(nc3)N3CCCC3CCN1)C(CO)C2` (stereo not drawn) [Compound 46]: the IC50 is 2.34e-06 M at PIK3C3 lipid kinase, 6.46e-07 M on eEF2K and 1.32e-08 M on EF2K.

For `CC1CN2CCN1Cc1cccc(c1)Nc1cc(ccn1)-c1cnc(nc1)N1CCCC1CCNC(=O)C2` (stereo not drawn) [Compound 47], the IC50 was 9.12e-06 M against PIK3C3 lipid kinase, 4.17e-07 M at eEF2K and 8.51e-09 M at EF2K.

`CC1CN2CCN1Cc1cccc(c1)Nc1cc(ccn1)-c1cnc(nc1)N1CCCC1CCNC(=O)C2` (stereo not drawn) [Compound 48]: the remaining activity at 1 µM at PIK3C3 lipid kinase was 44.1%. The IC50 on eEF2K is 3.16e-06 M; on EF2K, 7.94e-08 M.

For the molecule `O=C1NCCC2CC(O)CN2c2ncc(cn2)-c2ccnc(c2)Nc2cccc(c2F)CN2CCN(CC2)C12CC2` (stereo not drawn) [Compound 53], the IC50 against PIK3C3 lipid kinase is 1.78e-07 M; on eEF2K, 8.51e-08 M; on EF2K it was 4.07e-09 M.

On to `O=C1CN2CCN(CC2)Cc2cccc(c2)Nc2cc(ccn2)-c2cnc(nc2)N2CC(O)CC2CCN1` (stereo not drawn) [Compound 54], for which the IC50 at PIK3C3 lipid kinase is 9.77e-06 M; on eEF2K, 7.94e-07 M; at EF2K, 1.1e-08 M.

Take `O=C1CN2CCN(CC2)Cc2cccc(c2)Nc2cc(ccn2)-c2cnc(nc2)N2CC(O)CC2CCN1` (stereo not drawn) [Compound 55]: the remaining activity at 1 µM on PIK3C3 lipid kinase is 29.6%. Moreover, the IC50 at PIK3C3 lipid kinase is 5.5e-07 M; on eEF2K, 7.76e-07 M; at EF2K, 8.51e-09 M.

On to `O=C1NCCC2CC(O)CN2c2ncc(cn2)-c2ccnc(c2)Nc2cccc(c2)CN2CCN(CC2)C12CC2` (stereo not drawn) [Compound 56], for which the IC50 at PIK3C3 lipid kinase was 2.63e-07 M; at eEF2K it was 3.02e-07 M; at EF2K, 3.39e-09 M.

For `O=C1NCCC2CC(O)CN2c2ncc(cn2)-c2ccnc(c2)Nc2cccc(c2)CN2CCN(CC2)C12CC2` (stereo not drawn) [Compound 57], the IC50 is 5.01e-06 M against PIK3C3 lipid kinase, 3.09e-07 M on eEF2K and 1.02e-08 M at EF2K.
